Data from patent US20170056524A1, “COMPOSITIONS AND METHODS FOR TARGETED EPIGENETIC MODIFICATION” (THE TRUSTEES OF THE UNIVERSITY OF PENNSYLVANIA, priority 2014, published 2017).
Entries after “also recorded” stand apart in the source; their conditions may differ.

Columns and labels:
[1] = system: islets from GlucagonCre; Rosa26EYFP mice; assay: Lineage tracing: immunostaining of Adox-treated islets from GlucagonCre; Rosa26EYFP mice; assay type: cell-based; details: mouse islets treated with Adox in vitro; not observed in control islets
Method: (§1) Human islets and islets from GlucagonCre; Rosa26EYFP bigenic mice (Herrera et al., 2000; Srinivas et al., 2001) were cultured, treated with 50μM adenosine dialdehyde (Adox, Sigma A7154) for 72 h, FACS sorted as described previously (11), or prepared for immunostaining.
Immunofluorescent confocal analysis was performed as described previously (Gao et al., Genes Dev. 2010, Jun. 15, 24(12): 1295-305). […] For quantification of double PDX1+/GCG+ cells, Pdx1-, Glucagon-, E-Cadherin and DAPI staining were performed on untreated (control) and Adox-treated islets. All glucagon-positive cells and all double PDX1+/GCG+ cells were counted manually (8 slides) in each condition and the percentage of PDX1+/GCG+ double-positive cells of all glucagon-positive cells was calculated.
A priori, the co-localization of glucagon with insulin could be due to α- to β-cell fate or β- to α-cell fate conversion. […] For this purpose, islets from GlucagonCre; Rosa26EYFP mice were treated, in which α-cells are permanently marked by yellow fluorescence protein (YFP) expression (27, 28) with Adox in vitro. […]

human islets = assay: Immunofluorescent confocal analysis of Adox-treated human islets; assay type: cell-based
Method: as §1
Immunofluorescent confocal analysis was performed as described previously (Gao et al., Genes Dev. 2010, Jun. 15, 24(12): 1295-305). Sections were blocked with CAS-Block (Invitrogen, 00-8120) and stained using guinea pig anti-insulin 1:500 (Abcam, ab7842), rabbit anti-glucagon 1:250 (Santa Cruz, sc13091), guinea-pig anti-Pdx1 1:1000 (gift from Dr. C. Wright), mouse anti-E-Cadherin 1:500 (BD Transduction Laboratories, 610181), goat anti-GFP (Abcam, ab6673), guinea pig Cy2, guinea pig Cy5, rabbit Cy3, mouse Cy2, mouse Cy5, goat Cy3 (1:500, Jackson-Immunoresearch) antibodies. For quantification of double PDX1+/GCG+ cells, Pdx1-, Glucagon-, E-Cadherin and DAPI staining were performed on untreated (control) and Adox-treated islets. All glucagon-positive cells and all double PDX1+/GCG+ cells were counted manually (8 slides) in each condition and the percentage of PDX1+/GCG+ double-positive cells of all glucagon-positive cells was calculated.

H3K27me3 = H3K27me3 ChIP-Seq of whole human islets cultured in the absence or presence of Adox; assay type: cell-based
Method: Chromatin immunoprecipitation and preparation of ChIP-Seq libraries was performed on individual cell sorts for each cell type and donor (H3K4me3: Abcam 8580, H3K27me3: Upstate 07-449).
Libraries for H3K4me3, H3K27me3, and input were sequenced on an Illumina GA-IIx to 36 bp. Reads were aligned to hg18 using ELAND. Up to two mismatches were allowed and only reads with a best alignment to a single location were used for further analysis. Enrichment of H3K4me3 was performed on individual donors and cell types using GLITR (FDR=5%) (32) and a pool of human input from various tissues. GLITR was also run on islet cell input samples and any peaks identified in the inputs were filtered from the H3K4me3 enriched regions. Enriched regions in the H3K27me3 data were identified using the program STAR (33) with a sliding window of 5,000 bp, step size of 1,000 bp, and a FDR=0.5%. To ensure fair comparison, H3K4me3 and H3K27me3 profiles from CD4-positive T-cells (23) were determined using the same algorithms and settings.
as §1
The high incidence of bivalent marks in α-cells, the interesting bivalent pattern of β-cell and α-cell-specific transcription factors in α-cells, and the large overlap with bivalently-marked transcriptional regulators in hESC raised the likelihood that epigenomic manipulations could be exploited to reprogram human α-cells towards the β-cell phenotype. Several drugs, such as adenosine dialdehyde (Adox) and 3-Deazaneplanocin A (DZNep) interfere with histone methylation (24). The general histone methyltransferase inhibitor Adox, which amongst others decreases H3K27me3 levels (24), was employed to test whether modulation of the histone methylation status of human pancreatic islets could promote reprogramming. […]

human α-cells = assay: RNA-Seq of FACS-sorted α-cells from Adox-treated human islets; assay type: cell-based; details: Adox-treated α-cells (Adox-α/β vs α/β ratio)
Method: (§2) After total RNA extraction (see above), RNA-Seq libraries were prepared from sorted alpha, beta, and exocrine cells. The detailed protocol can be found on http://ngsc.med.upenn.edu (Lab protocol, Library preparation for RNA-Seq from total RNA). Libraries were single-end sequenced to 100 bp on an Illumina hiSeq2000. Reads from ribosomal RNA and genomic repeats were identified by aligning the 5′ 50 bp of each read to ribosomal sequences and the human repeats in RepBase (version 14.10) using Bowtie (Langmead B., Curr. Protoc. Bioinformatics. 201, December Chapter 11: Unit 117) and allowing for up to three mismatches. The remaining reads were processed with RUM (Grant et al., Bioinformatics 2011. Sep. 15, 27(18): 2518-28) and aligned to the set of known transcripts included in RefSeq, UCSC known genes, and ENSEMBL transcripts, and the human genome (hg18, NCBI build 36.1). Transcript-, exon-, and intron-level quantification was done using only the uniquely aligning reads. This process was repeated separately for each cell type and donor.
(§3) To analyze global gene expression profiles from each sample, RNA-seq read counts aligning to exons of mRNA transcripts in RefSeq were extracted, and these values were normalized to total uniquely aligning reads and transcript length (RPKM). Data for individual genes was summarized by selecting a “representative transcript” with the highest RPKM value for each gene symbol (total=18,822 genes). Gene-level data was then quantile-normalized across all samples to remove bias from the variable expression levels of highly expressed genes, e.g., insulin, glucagon, and highly expressed ncRNAs, which dampen the relative signal of all other genes. Finally, quantile-normalized gene expression values were averaged together for samples of the same cell type to produce a single average gene profile for each cell type. These values were used for all subsequent analyses, including expression comparisons for individual genes of interest.
as §1
(§4) To investigate the transcriptional changes in Adox-treated human islets and confirm increased PDX1 expression, FACS analysis after Adox-treatment was performed using the same antibody panel as described above, followed by RNA-Seq analysis (n=2 treated α, n=2 treated β, technical replicates) and focused on cell-type-specific hormones and transcription factors. To assess whether Adox-treated β-cells become more α-cell like or vice versa, the ratio of expression levels in untreated β-cells and untreated α-cells (β/α) were first compared to the ratio in Adox-treated β-cells and untreated α-cells (Adox-β/α) (FIG. 6E). A decrease in NKX6-1 and MAFA levels, an increase in PDX1 levels and no change in insulin expression were found and no change in the expression levels of the α-cell specific genes glucagon or ARX were observed, giving no indication for a gain of α-cell identity. Second, the ratio of expression values in untreated α-cells and untreated β-cells (α/β) were compared to the ratio in Adox-treated α-cells and untreated β-cells (Adox-α/β) to elucidate whether Adox-treated α-cells become more ‘β-cell like’ (FIG. 6F).

human β-cells = assay: RNA-Seq of FACS-sorted β-cells from Adox-treated human islets; assay type: cell-based; details: Adox-treated β-cells (Adox-β/α vs β/α ratio)
Method: as §2, §3, §1, §4

[2] = system: p16 TALE-DNMT (24-repeat TALE fused to DNMT3a-3L) (Xanthomonas TALE / DNMT3a-DNMT3L, engineered?); assay: cell_activity; details: HeLa transfection, 48 h, bisulfite sequencing, vs E752A mutant; up to 66.5% at individual CpGs
[3] = system: p16 jTALE-DNMT (18-repeat TALE fused to DNMT3a-3L) (Xanthomonas TALE / DNMT3a-DNMT3L, engineered?); assay: cell_activity; details: primary human fibroblasts, lentivirus, 4 days, vs mutant; p16 mRNA decreased about 50%; also active in HeLa and hCASMC
[4] = whole human islets, 50μM Adox 72 h vs untreated

Nc1ncnc2c1ncn2C(C=O)OC(C=O)CO (stereo not shown) [Adox, adenosine dialdehyde]
insulin granules in YFP+ (lineage-labeled α) cells [1]: occurrence of insulin granules in YFP+ cells | co-localization of glucagon and insulin granules within the same islet cell (human islets; 50μM Adox 72 h, not seen in untreated islets): occasional co-occurrence of glucagon and insulin granules within the same islet cell; also recorded: co-localization of glucagon and insulin granules within the same cell; also recorded: co-localization of glucagon and insulin granules in pancreatic cells | PDX1 expression in glucagon-positive cells (PDX1+/GCG+ double-positive cells) (human islets; 50μM Adox 72 h vs untreated): nuclear PDX1-expression in many glucagon-positive cells; also recorded: many double-positive cells | H3K4me3-enrichment (FIG. 9A legend) (H3K27me3; human islets treated with Adox): decrease | H3K27me3 enrichment at genes carrying a bivalent or monovalent H3K27me3 mark in all pancreatic cell populations (H3K27me3; [4]): strong decrease | H3K27me3 enrichment at the ARX, MAFA and PDX1 loci (H3K27me3; [4]): decrease; also recorded: decreased H3K27me3 levels | ARX expression level (human α-cells): increase | MAFA expression level (human α-cells): slight decrease | NKX6-1 expression level (human α-cells): slight decrease | PDX1 expression level (human α-cells): increase | glucagon (GCG) expression level (human α-cells): no change | insulin (INS) expression level (human α-cells): no change | ARX expression level (human β-cells): no change | MAFA expression level (human β-cells): decrease | NKX6-1 expression level (human β-cells): decrease | glucagon (GCG) expression level (human β-cells): no change | insulin (INS) expression level (human β-cells): no change

CCTCCTTCCTTGCCAACGCTGGCT (double strand) [CDKN2A (p16) promoter TALE target, 24 bp]
activity (% average increase in CpG methylation) [2]: 17

TCCTTGCCAACGCTGGCT (double strand) [CDKN2A (p16) promoter jTALE target, 18 bp]
activity (% average increase in CpG methylation) [3]: 10
